Assay results as given in US20070117770A1, “Human ribosomal DNA (rDNA) and ribosomal RNA (rRNA) nucleic acids and uses thereof” (Cylene Pharmaceuticals, Inc., priority 2005, published 2007).

Assays:
Experiment in all cases: Protein kinase inhibition assay
Type in all cases: biochemical
ARK5(h) = ARK5(h) (Homo sapiens, UniProt O60285); conditions: read-out: percent residual activity of ARK5(h)
Experimental: (§1) Certain compounds were tested for activity in protein kinase inhibition assays. All substrates were dissolved and diluted to working stocks in de-ionized water, apart from histone H1 (10× working stock in 20 mM MOPS pH 7.0), PDKtide (10× working stock in 50 mM Tris pH 7.0) ATF2 (which is typically stored at a 20× working stock in 50 mM Tris pH 7.5, 150 mM NaCl, 0.1 mM EGTA, 0.03% Brij-35, 50% glycerol, 1 mM benzamidine, 0.2 mM PMSF and 0.1% R-mercaptoethanol), KKLNRTLSFAEPG (SEQ ID NO:203) and RRRLSFAEPG (SEQ ID NO:204) (50 mM HEPES pH 7.4) and GGEEEEYFELVKKKK (SEQ ID NO:205) (20 mM MOPS pH 7.0). All kinases were pre-diluted to a 10× working concentration prior to addition into the assay. The composition of the dilution buffer for each kinase is detailed below.

BrSK2(h) = BrSK2(h) (Homo sapiens, UniProt Q8IWQ3); conditions: read-out: percent residual activity of BrSK2(h)
Experimental: as §1

CaMKI(h) = CaMKI(h) (Homo sapiens, UniProt Q14012); conditions: read-out: percent residual activity of CaMKI(h)
Experimental: as §1

DAPK2(h) = DAPK2(h) (Homo sapiens, UniProt Q9UIK4); conditions: read-out: percent residual activity of DAPK2(h)
Experimental: as §1

DMPK(h) = DMPK(h) (Homo sapiens, UniProt Q09013); conditions: read-out: percent residual activity of DMPK(h)
Experimental: as §1

EphB1(h) = EphB1(h) (Homo sapiens, UniProt P54762); conditions: read-out: percent residual activity of EphB1(h)
Experimental: as §1

GRK5(h) = GRK5(h) (Homo sapiens, UniProt P34947); conditions: read-out: percent residual activity of GRK5(h)
Experimental: as §1

GRK6(h) = GRK6(h) (Homo sapiens, UniProt P43250); conditions: read-out: percent residual activity of GRK6(h)
Experimental: as §1

HIPK1(h) = HIPK1(h) (Homo sapiens, UniProt Q86Z02); conditions: read-out: percent residual activity of HIPK1(h)
Experimental: as §1

IRAK1(h) = IRAK1(h) (Homo sapiens, UniProt P51617); conditions: read-out: percent residual activity of IRAK1(h)
Experimental: as §1

LIMK1(h) = LIMK1(h) (Homo sapiens, UniProt P53667); conditions: read-out: percent residual activity of LIMK1(h)
Experimental: as §1

LOK(h) = LOK(h) (Homo sapiens, UniProt O94804); conditions: read-out: percent residual activity of LOK(h)
Experimental: as §1

MLK1(h) = MLK1(h) (Homo sapiens, UniProt P80192); conditions: read-out: percent residual activity of MLK1(h)
Experimental: as §1

Mer(h) = Mer(h) (Homo sapiens, UniProt Q12866); conditions: read-out: percent residual activity of Mer(h)
Experimental: as §1

Mnk2(h) = Mnk2(h) (Homo sapiens, UniProt Q9HBH9); conditions: read-out: percent residual activity of Mnk2(h)
Experimental: as §1

NLK (h) = NLK (h) (Homo sapiens, UniProt Q9UBE8); conditions: read-out: percent residual activity of NLK (h)
Experimental: as §1

PAK5(h) = PAK5(h) (Homo sapiens, UniProt Q9P286); conditions: read-out: percent residual activity of PAK5(h)
Experimental: as §1

PASK(h) = PASK(h) (Homo sapiens, UniProt Q96RG2); conditions: for remaining activity at 2.5 µM: read-out: percent residual activity of PASK(h)
Experimental: as §1

PhKγ2(h) = PhKγ2(h) (Homo sapiens, UniProt P15735); conditions: read-out: percent residual activity of PhKγ2(h)
Experimental: as §1

Pim-2(h) = Pim-2(h) (Homo sapiens, UniProt Q9P1W9); conditions: read-out: percent residual activity of Pim-2(h)
Experimental: as §1

PrKX(h) = PrKX(h) (Homo sapiens, UniProt P51817); conditions: read-out: percent residual activity of PrKX(h)
Experimental: as §1

Rsk4(h) = Rsk4(h) (Homo sapiens, UniProt Q9UK32); conditions: read-out: percent residual activity of Rsk4(h)
Experimental: as §1

SAPK2a(T106M)(h) = SAPK2a(T106M)(h) (Homo sapiens, UniProt Q16539, T106M); conditions: read-out: percent residual activity of SAPK2a(T106M)(h)
Experimental: as §1

SRPK1(h) = SRPK1(h) (Homo sapiens, UniProt Q96SB4); conditions: read-out: percent residual activity of SRPK1(h)
Experimental: as §1

TSSK1(h) = TSSK1(h) (Homo sapiens, UniProt Q9BXA7); conditions: read-out: percent residual activity of TSSK1(h)
Experimental: as §1

WNK2(h) = WNK2(h) (Homo sapiens, UniProt Q9Y3S1); conditions: read-out: percent residual activity of WNK2(h)
Experimental: as §1

Sequence of PASK(h) (Q96RG2 whole entry): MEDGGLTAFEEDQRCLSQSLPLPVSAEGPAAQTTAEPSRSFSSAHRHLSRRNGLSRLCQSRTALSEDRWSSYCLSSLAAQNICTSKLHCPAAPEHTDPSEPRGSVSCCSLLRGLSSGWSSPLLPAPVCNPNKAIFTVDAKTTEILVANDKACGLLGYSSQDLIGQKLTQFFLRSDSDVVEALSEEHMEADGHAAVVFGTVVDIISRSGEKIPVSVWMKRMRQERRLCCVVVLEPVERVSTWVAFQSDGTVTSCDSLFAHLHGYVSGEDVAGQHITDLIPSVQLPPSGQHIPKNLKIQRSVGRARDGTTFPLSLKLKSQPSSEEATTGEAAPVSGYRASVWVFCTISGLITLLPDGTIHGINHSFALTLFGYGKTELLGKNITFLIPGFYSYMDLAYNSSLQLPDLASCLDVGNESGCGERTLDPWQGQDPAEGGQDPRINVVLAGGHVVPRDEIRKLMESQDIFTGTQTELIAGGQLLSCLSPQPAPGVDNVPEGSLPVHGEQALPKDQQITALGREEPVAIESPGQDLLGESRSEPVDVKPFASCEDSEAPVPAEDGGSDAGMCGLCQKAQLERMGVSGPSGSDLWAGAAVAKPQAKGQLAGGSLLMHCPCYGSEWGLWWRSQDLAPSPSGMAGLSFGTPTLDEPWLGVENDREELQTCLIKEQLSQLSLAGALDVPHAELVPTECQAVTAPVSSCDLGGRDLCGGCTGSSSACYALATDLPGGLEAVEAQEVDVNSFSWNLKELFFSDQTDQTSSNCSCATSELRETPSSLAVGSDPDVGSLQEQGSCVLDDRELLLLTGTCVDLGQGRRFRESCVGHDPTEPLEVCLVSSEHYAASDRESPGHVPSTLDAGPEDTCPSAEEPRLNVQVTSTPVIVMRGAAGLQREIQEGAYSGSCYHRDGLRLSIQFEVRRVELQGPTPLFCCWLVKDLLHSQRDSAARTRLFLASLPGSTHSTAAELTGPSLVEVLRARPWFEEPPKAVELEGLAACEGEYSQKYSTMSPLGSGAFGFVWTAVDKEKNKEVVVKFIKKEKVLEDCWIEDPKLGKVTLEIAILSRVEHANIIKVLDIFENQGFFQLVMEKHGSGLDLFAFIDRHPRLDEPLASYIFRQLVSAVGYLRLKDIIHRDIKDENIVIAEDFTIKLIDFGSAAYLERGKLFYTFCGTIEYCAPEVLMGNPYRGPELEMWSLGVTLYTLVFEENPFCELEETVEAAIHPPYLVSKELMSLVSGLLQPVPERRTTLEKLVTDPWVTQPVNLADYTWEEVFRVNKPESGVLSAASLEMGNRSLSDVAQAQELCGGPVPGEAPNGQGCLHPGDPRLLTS
Sequence of NLK (h) (Q9UBE8 whole entry): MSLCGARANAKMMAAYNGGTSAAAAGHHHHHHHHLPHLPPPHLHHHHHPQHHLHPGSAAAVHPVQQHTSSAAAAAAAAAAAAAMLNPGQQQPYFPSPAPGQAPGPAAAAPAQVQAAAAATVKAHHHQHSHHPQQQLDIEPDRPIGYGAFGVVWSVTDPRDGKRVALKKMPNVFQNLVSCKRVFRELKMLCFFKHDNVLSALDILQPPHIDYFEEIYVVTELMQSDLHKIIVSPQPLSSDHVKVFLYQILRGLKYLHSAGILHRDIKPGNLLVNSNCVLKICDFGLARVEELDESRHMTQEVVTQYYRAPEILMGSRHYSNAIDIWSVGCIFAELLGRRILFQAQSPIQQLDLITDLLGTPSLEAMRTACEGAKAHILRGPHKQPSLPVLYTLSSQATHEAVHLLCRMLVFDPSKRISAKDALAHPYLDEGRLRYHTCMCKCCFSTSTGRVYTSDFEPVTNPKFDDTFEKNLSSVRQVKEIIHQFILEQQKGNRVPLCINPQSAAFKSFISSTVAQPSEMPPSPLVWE
Sequence of ARK5(h) (O60285 whole entry): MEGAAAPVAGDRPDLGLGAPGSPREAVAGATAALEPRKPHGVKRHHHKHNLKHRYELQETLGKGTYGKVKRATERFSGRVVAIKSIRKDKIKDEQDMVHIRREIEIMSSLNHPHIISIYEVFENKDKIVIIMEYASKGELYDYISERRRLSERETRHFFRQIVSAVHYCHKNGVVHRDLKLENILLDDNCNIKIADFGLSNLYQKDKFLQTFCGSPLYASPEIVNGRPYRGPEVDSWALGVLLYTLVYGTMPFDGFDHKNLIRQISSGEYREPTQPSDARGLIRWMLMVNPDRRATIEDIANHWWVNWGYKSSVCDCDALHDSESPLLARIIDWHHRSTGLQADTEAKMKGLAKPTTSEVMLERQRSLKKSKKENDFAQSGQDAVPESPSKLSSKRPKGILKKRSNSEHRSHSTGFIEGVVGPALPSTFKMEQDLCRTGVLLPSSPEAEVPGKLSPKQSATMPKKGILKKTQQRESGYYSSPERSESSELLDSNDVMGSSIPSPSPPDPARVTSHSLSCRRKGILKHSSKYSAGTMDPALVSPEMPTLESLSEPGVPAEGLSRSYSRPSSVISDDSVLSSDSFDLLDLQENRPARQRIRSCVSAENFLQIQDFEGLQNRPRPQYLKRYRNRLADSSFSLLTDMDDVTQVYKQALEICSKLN
Sequence of LIMK1(h) (P53667 whole entry): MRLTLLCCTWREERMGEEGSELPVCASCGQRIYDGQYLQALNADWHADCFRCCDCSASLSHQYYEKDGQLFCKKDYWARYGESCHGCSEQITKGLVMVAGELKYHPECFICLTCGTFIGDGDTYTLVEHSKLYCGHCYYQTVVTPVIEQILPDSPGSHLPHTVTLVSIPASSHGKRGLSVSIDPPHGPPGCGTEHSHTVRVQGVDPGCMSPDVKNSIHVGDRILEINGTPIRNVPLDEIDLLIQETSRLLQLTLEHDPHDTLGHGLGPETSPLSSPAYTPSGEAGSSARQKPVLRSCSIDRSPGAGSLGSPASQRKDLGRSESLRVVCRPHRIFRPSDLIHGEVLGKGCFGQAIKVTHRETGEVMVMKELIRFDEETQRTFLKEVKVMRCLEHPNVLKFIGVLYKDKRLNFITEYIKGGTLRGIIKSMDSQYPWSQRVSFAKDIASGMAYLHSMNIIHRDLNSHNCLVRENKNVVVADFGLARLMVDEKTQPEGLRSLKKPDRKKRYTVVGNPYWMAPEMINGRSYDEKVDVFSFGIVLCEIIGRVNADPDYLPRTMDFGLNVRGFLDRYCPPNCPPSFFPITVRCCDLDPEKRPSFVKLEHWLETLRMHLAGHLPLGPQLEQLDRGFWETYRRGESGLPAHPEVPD
Sequence of DMPK(h) (Q09013 whole entry): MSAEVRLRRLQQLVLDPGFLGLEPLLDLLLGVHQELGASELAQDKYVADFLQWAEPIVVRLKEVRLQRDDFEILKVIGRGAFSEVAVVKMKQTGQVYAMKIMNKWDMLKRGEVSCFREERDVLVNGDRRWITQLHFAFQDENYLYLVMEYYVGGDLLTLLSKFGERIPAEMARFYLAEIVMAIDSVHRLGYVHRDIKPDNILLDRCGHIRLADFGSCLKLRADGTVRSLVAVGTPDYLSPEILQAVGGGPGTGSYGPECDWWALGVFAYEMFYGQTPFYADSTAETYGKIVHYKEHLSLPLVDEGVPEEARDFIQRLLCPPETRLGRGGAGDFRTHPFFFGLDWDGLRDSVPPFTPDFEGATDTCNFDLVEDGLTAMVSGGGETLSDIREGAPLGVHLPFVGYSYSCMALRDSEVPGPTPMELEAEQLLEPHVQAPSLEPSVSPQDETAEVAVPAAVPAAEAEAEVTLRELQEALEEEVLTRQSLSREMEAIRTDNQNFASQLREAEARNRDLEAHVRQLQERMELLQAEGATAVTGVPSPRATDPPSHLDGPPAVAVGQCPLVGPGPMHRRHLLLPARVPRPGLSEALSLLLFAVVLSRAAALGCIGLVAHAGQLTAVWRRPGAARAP
Sequence of BrSK2(h) (Q8IWQ3 whole entry): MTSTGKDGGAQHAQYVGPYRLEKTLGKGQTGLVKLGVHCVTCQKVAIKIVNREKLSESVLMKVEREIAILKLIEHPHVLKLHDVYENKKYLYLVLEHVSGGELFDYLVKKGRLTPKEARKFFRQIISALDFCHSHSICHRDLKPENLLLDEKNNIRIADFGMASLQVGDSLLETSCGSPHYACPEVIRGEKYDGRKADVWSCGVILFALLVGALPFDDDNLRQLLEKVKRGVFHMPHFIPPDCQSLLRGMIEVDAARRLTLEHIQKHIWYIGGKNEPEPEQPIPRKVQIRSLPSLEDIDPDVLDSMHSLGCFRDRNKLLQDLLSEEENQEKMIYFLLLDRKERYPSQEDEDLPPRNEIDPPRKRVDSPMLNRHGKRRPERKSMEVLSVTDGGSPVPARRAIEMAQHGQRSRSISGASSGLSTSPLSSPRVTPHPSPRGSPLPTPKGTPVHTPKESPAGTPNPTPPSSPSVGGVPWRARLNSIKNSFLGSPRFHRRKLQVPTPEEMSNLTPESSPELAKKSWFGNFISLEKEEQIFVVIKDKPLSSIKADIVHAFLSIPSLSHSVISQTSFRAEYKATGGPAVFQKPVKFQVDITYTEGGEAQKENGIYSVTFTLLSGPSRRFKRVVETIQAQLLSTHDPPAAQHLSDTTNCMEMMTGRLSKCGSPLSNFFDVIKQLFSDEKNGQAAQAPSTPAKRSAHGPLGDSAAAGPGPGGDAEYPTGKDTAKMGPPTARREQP
Sequence of PhKγ2(h) (P15735 whole entry): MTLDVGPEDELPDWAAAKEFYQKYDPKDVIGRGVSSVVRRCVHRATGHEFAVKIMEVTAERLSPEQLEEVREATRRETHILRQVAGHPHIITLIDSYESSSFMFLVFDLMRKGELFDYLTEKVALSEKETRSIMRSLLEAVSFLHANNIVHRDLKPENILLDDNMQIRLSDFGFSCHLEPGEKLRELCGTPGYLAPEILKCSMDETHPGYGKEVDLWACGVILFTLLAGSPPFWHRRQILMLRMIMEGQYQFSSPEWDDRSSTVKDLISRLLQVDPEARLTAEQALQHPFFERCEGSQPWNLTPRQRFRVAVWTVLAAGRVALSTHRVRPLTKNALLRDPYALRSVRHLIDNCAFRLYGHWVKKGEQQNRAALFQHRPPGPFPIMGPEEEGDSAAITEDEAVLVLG

Structure (SMILES) | remaining activity at 2.5 µM (ARK5(h)) | remaining activity at 2.5 µM (BrSK2(h)) | remaining activity at 2.5 µM (CaMKI(h)) | remaining activity at 2.5 µM (DAPK2(h)) | remaining activity at 2.5 µM (DMPK(h)) | remaining activity at 2.5 µM (EphB1(h)) | remaining activity at 2.5 µM (GRK5(h)) | remaining activity at 2.5 µM (GRK6(h)) | remaining activity at 2.5 µM (HIPK1(h)) | remaining activity at 2.5 µM (IRAK1(h)) | remaining activity at 2.5 µM (LIMK1(h)) | remaining activity at 2.5 µM (LOK(h)) | remaining activity at 2.5 µM (MLK1(h)) | remaining activity at 2.5 µM (Mer(h)) | remaining activity at 2.5 µM (Mnk2(h)) | remaining activity at 2.5 µM (NLK (h)) | remaining activity at 2.5 µM (PAK5(h)) | remaining activity at 2.5 µM (PASK(h)) | remaining activity at 2.5 µM (PhKγ2(h)) | remaining activity at 2.5 µM (Pim-2(h)) | further results
CN1CCCC1CCNC(=O)c1cn2c3c(c(N4CCC(c5cnccn5)C4)c(F)cc3c1=O)Oc1cc3ccccc3cc1-2 (centres unmarked) [Compound A-1] | 79% | 96% | 95% | 109% | 92% | 125% | 95% | 90% | 95% | 86% | 97% | 88% | 85% | 111% | 98% | 90% | 103% | 10% | 46% | 77% | inhibition at 2.5 µM (PASK(h)): > 80%; remaining activity at 2.5 µM (PrKX(h)): 75%; remaining activity at 2.5 µM (Rsk4(h)): 69%; remaining activity at 2.5 µM (SAPK2a(T106M)(h)): 94%; remaining activity at 2.5 µM (SRPK1(h)): 91%; remaining activity at 2.5 µM (TSSK1(h)): 98%; remaining activity at 2.5 µM (WNK2(h)): 97%
CC(=O)N1CCN(c2ccc3c(=O)c(C(=O)NCCN4CCCC4)c4n(C)c5ccccc5n4c3n2)CC1 [Compound B-1] | 104% | 96% | 106% | 102% | 105% | 75% | 99% | 83% | 101% | 102% | 100% | 106% | 86% | 125% | 115% | 109% | 101% | 100% | 118% | 110% | remaining activity at 2.5 µM (PrKX(h)): 96%; remaining activity at 2.5 µM (Rsk4(h)): 94%; remaining activity at 2.5 µM (SAPK2a(T106M)(h)): 99%; remaining activity at 2.5 µM (SRPK1(h)): 99%; remaining activity at 2.5 µM (TSSK1(h)): 107%; remaining activity at 2.5 µM (WNK2(h)): 108%
